Source: patent US11122997B2, “Modulating the aryl hydrocarbon receptor system to treat major depressive disorder” (Mayo Foundation for Medical Education and Research, priority 2015, dated 2021)

Experiments:
U251 glioma cells = assay: Ketamine treatment of U251 glioma cell culture, mRNA (RT-qPCR) and protein (Western blot) levels; format: cell-based, human; settings: U251 glia
Method: (§1) Lysates obtained from cells subjected to knockdown or overexpression were used to isolate total RNA (Zymo Research). The purity of the extracted RNA samples was assessed using a Nanodrop instrument (Thermo Scientific). All samples had acceptable A260/A280 ratios. AHR, ARNT, AHRR, IDO1, and TDO2 mRNAs levels were quantified by reverse transcription quantitative PCR (RT-qPCR) using a one step RNA-to-Ct™ kit (Life Technologies). The kit contains reagents for converting RNA to cDNA, followed by primer-specific amplification of the desired mRNA (in this case, AHR, ARNT, AHRR, IDO1, and TDO2). GAPDH was used as a reference gene. The quantification of these mRNAs was carried out by employing the ΔΔCt method as described elsewhere (Ingle et al., Cancer Discovery 3(7):812-825, 2013).
(§2) Cell lysates obtained after transfections and from LCLs were subjected to Western immunoblotting to detect levels of AHR, AHRR, ARNT, TDO2, and IDO1 proteins. Briefly, equal amounts of protein (as determined by the BCA protein assay) were loaded onto premade Criterion gels (Bio-Rad) and run for 1 hour at 180V. Proteins from the gels were electrophoretically transferred onto PVDF membranes and blocked at room temperature for 1 hour with 5% non-fat milk dissolved in TBST. The membranes were incubated with primary antibodies (anti-AHR from GeneTex, Inc. (Irvine, Calif.); anti-ARNT and anti AHRR from Sigma (St. Louis, Mo.); TDO2 from OriGene Technologies, Inc.; and IDO1) dissolved in 5% non-fat milk containing TBST at 4° C. overnight with gentle rocking. Following incubation, the membranes were vigorously washed with TB ST several times and then incubated with appropriate secondary antibodies, dissolved in 5% non-fat milk containing TBST at room temperature for 1 hour. Several TBST washes were carried out before ECL reagents were applied to the membranes and radiographic images were captured on X-ray films (GE). B-actin protein also was detected and served as a loading control. Quantification of Western immunoblots was carried out using NIH Image-J (Abramoff et al., Biophotonics Intl 11(7):36-42, 2004), and plotted in GraphPad-Prism software.

iPSC-derived neurons = assay: Ketamine treatment of iPSC-derived neuron culture, mRNA and protein levels; format: cell-based, human
Method: Human induced pluripotent stem cells (iPSCs) were purchased from Axol, UK and were differentiated as per the company's protocol. The cells were differentiated for 30 days before being used for lentivirus-mediated knockdown experiments.
as §1, §2

[1] = cited from earlier work
glioblastoma cells = assay: Secreted kynurenine in conditioned media of glioblastoma cells (HPLC); settings: ketamine vs vehicle (FIG. 10)
[2] = other NMDA receptor antagonists; cited from earlier work
[3] = ketamine vs vehicle (FIGS. 8A, 8B)

## CNC1(c2ccccc2Cl)CCCCC1=O (stereo not drawn) [Ketamine]
U251 glioma cells; ketamine for 24 hours vs vehicle (FIG. 9A)
  protein level of IDOL: decreased levels
U251 glioma cells; [3]
  mRNA level of AHRR: Decreased levels
  mRNA level of IDOL: decreased levels
  mRNA level of TDO2: decreased levels
iPSC-derived neurons; ketamine vs vehicle (FIG. 8C)
  mRNA level of AHRR: Decreased levels
  mRNA level of IDOL: decreased levels
  mRNA level of TDO2: decreased levels
iPSC-derived neurons; ketamine vs vehicle (FIG. 9B)
  protein level of AHRR: Decreased levels
  protein level of IDOL: decreased levels
  protein level of TDO2: decreased levels
[1]; severely depressed patients
  effect on mood: rapid improvement in mood
[1]; single infusion
  duration of effects: last for weeks
Glioblastoma cells
  secreted KYN in cell culture conditioned media: decreased levels

## C[C@]12N[C@H](Cc3ccccc31)c1ccccc12 [MK801]
[2]
  ketamine-like antidepressant effects: fail to demonstrate ketamine-like antidepressant effects

## CC12CC3CC(C)(C1)CC(N)(C3)C2 [memantine]
[2]
  ketamine-like antidepressant effects: fail to demonstrate ketamine-like antidepressant effects
